Results from US6013618A, “Perfumes having odor longevity benefits” (Procter & Gamble Company, priority 1998, dated 2000).

Experiment: Fragrance Release Half-life: hydrolysis kinetics of pro-accords monitored by HPLC
Format: physicochemical
Conditions: 10 mL phosphate buffer (NaH2PO4/H3PO4, approximately pH 2.5) admixed with 90 mL dioxane, 30° C.
Source text: Fragrance Release Half-life
The pro-accords useful in the perfume and fine flagrance compositions of the present invention generally have a delayed release of final fragrance accord in order to achieve the increased fragrance longevity benefits described herein. However, the pro-accords generally also deliver the fragrance accords during a time period useful to the formulator, for example, within a time period desirable to the consumer.
For the purposes of the present invention the pro-accords generally have a "Fragrance Release Half-life" of less than or equal to 12 hours when measured in NaH2 PO4 buffer at pH 2.5 and greater than or equal to 0.1 hour when measured in NaH2 PO4 buffer at pH 5.3. The "Fragrance Release Half-life" is defined herein as follows
Pro-accords deliver their corresponding mixture of fragrance raw materials or fragrance accords according to the equation: […]
wherein the accord which is released may be a binary accord or a multiple fragrance raw material accord.
The rate at which the accord is released is defined by the formula: […]
An example of the procedure used to measure the suitability of a pro-accord for use in the fragrance delivery systems at pH 2.5 is as follows. […] Next 10 mL of the phosphate buffer is admixed with 90 mL of dioxane and the pro-fragrance to be analyzed is added. The hydrolysis kinetics are then monitored by conventional HPLC at 30° C. […]

Structure (SMILES) | t1/2 (Fragrance Release Half-life) [h]
c1ccc(CCOC(OCCc2ccccc2)(OCCc2ccccc2)OCCc2ccccc2)cc1 [tetrakis(phenylethyl) orthocarbonate, Tetrakis(phenylethyl) Orthocarbonate] | 4.8
c1ccc(CCOC(OCCc2ccccc2)OCCc2ccccc2)cc1 [tris(phenylethyl) orthoformate, Tris(phenylethyl) Orthoformate] | 5.9
